Laboratory results as given in patent US5486516A, “Furopyrimidine derivatives” (DowElanco, priority 1993, dated 1996).

Legend:
[1] = system: southern armyworm (Spodopetra eridania Cramer); test: Mite/insect screen, Southern armyworm; type: in vivo; details: Spodoptera eridania, sprayed leaves, read-out: SAW results (percent mortality); for mortality at 200 ppm: rate 200 ppm; for mortality at 400 ppm: rate 400 ppm
Method: (§1) The compounds of Examples were tested for miticidal and insecticidal activity in the following mite/insect screen.
(§2) Each test compound was formulated by dissolving the compound in acetone/alcohol (50:50) mixture containing 23 g of "TOXIMUL R" (sulfonate/nonionic emulsifier blend) and 13 g of "TOXIMUL S" (sulfonate/nonionic emulsifier blend) per liter. These mixtures were then diluted with water to give the indicated concentrations.
(§3) Twospotted spider mites (Tetranychus urticae Koch) and melon aphids (Aphis gossvpii Glover) were introduced on squash cotyledons and allowed to establish on both leaf surfaces. Other plants in the same treatment pot were left uninfested. The leaves were then sprayed with 5 ml of test solution using a DeVilbiss atomizing sprayer at 10 psi. Both surfaces of the leaves were covered until runoff, and then allowed to dry for one hour. Two uninfested leaves were then excised and placed into a Petri dish containing larval southern armyworm (Spodopetra eridania Cramer).
(§4) After standard exposure periods, percent mortality and phytotoxicity were evaluated. […] The following abbreviations are used in Table 3:
SAW refers to Southern armyworm

[2] = system: Botrytis cinerea (gray mold); test: Plant pathology screen (Test 1), gray mold on grape berries; details: read-out: GRAY MOLD control rating
Method: This screen was used to evaluate the efficacy of the present compounds against a variety of different organisms that cause plant diseases.
(§5) The test compounds were formulated for application by dissolving 50 mg of the compound into 1.25 ml of solvent. The solvent was prepared by mixing 50 ml of "Tween 20" (polyoxyethylene (20) sorbitan monolaurate emulsifier) with 475 ml of acetone and 475 ml of ethanol. The solvent/compound solution was diluted to 125 ml with deionized water. The resulting formulation contains 400 ppm test chemical. Lower concentrations were obtained by serial dilution with the solvent-surfactant mixture.
The formulated test compounds were applied by foliar spray. The following plant pathogens and their corresponding plants were employed.
(§6) The formulated technical compounds were sprayed on all foliar surfaces of the host plants (or cut berry) to past run-off. Single pots of each host plant were placed on raised, revolving pedestals in a fume hood. Test solutions were sprayed on all foliar surfaces. All treatments were allowed to dry and the plants were inoculated with the appropriate pathogens within 2-4 hours.
(§7) The effectiveness of test compounds in controlling disease was rated using the following scale.

[3] = system: melon aphids (Aphis gossvpii Glover); test: Mite/insect screen, melon aphids; type: in vivo; details: Aphis, sprayed leaves, read-out: MA results (percent mortality); for mortality at 200 ppm: rate 200 ppm; for mortality at 400 ppm: rate 400 ppm
Method: as §1, §2, §3, §4
MA refers to melon aphids.

[4] = system: Southern corn rootworm (Diabrotica undecimpuctata howardi Barber); test: Mite/insect screen, corn rootworm; type: in vivo; details: Diabrotica, soil, read-out: CRW results (percent mortality); for mortality at 12 ppm: CRW rate 12.00 ppm; for mortality at 24 ppm: CRW rate 24.00 ppm
Method: as §1, §2
Activity on Southern corn rootworm (Diabrotica undecimpuctata howardi Barber) was evaluated by adding two ml of tap water, a presoaked corn seed, and 15 g of dry sandy soil to a one ounce plastic container. The soil was treated with 1 mL of test solution containing a predetermined concentration of test compound. After six to 12 hours of drying, five 2-3 instar corn rootworm larvae were added to the individual cups, which were then capped and held at 23° C.
as §4
CRW refers to corn rootworm

[5] = system: Pyricularia oryzae (rice blast); test: whole plant or invertebrate; type: in vivo; details: foliar, read-out: RICE BLAST control rating
[6] = system: Erysiphe graminis tritici (powdery mildew); test: Plant pathology screen (Test 1), powdery mildew on wheat; details: Blumeria graminis, in Triticum aestivum, foliar, read-out: POWD MDEW control rating
Method: as §5
The formulated test compounds were applied by foliar spray.
as §6, §7

[7] = system: Twospotted spider mites (Tetranychus urticae Koch); test: Mite/insect screen, twospotted spider mites; type: in vivo; details: Tetranychus urticae, sprayed leaves, read-out: SM results (percent mortality); for mortality at 200 ppm: rate 200 ppm; for mortality at 400 ppm: rate 400 ppm
Method: as §1, §2, §3, §4
SM refers to twospotted spider mites

[8] = system: Pseudoperonospora cubensis (downy mildew); test: Plant pathology screen (Test 1), downy mildew on squash; details: foliar, read-out: DOWN MDEW control rating
[9] = system: Puccinia recondita tritici (leaf rust); test: Plant pathology screen (Test 1), leaf rust on wheat; details: in Triticum aestivum, foliar, read-out: LEAF RUST control rating

Cc1oc2ncnc(Oc3ccccc3)c2c1C [Example 64, 5,6-dimethyl-4-phenoxyfuro[2,3-d]pyrimidine]
mortality at 200 ppm [1]: 0%
mortality at 400 ppm [1]: 0%
pest or weed control at 400 µg/mL [2]: 0 to 19%
mortality at 200 ppm [3]: 0%
mortality at 400 ppm [3]: 0%
mortality at 12 ppm [4]: 0%
mortality at 24 ppm [4]: 0%
pest or weed control at 400 µg/mL [5]: 0 to 19%
pest or weed control at 400 µg/mL [6]: 90 to 100%
mortality at 200 ppm [7]: 0%
mortality at 400 ppm [7]: 0%
pest or weed control at 400 µg/mL [8]: 90 to 100%
pest or weed control at 400 µg/mL [9]: 20 to 89%

Cc1oc2ncnc(OCCc3ccc(C(C)(C)C)cc3)c2c1C [Example 50, 4-[2-[4-(t-butyl)phenyl]ethoxy]-5,6-dimethylfuro[2,3-d]pyrimidine]
mortality at 200 ppm [1]: 0%
mortality at 400 ppm [1]: 0%
pest or weed control at 400 µg/mL [2]: 0 to 19%
mortality at 200 ppm [3]: 0%
mortality at 400 ppm [3]: 100%
mortality at 12 ppm [4]: 0%
mortality at 24 ppm [4]: 0%
pest or weed control at 400 µg/mL [5]: 20 to 89%
pest or weed control at 400 µg/mL [6]: 20 to 89%
mortality at 200 ppm [7]: 0%
mortality at 400 ppm [7]: 100%
pest or weed control at 400 µg/mL [8]: 20 to 89%
pest or weed control at 400 µg/mL [9]: 20 to 89%

Cc1cc2c(OCCc3ccc(OCc4ccccc4)cc3)ncnc2o1 [Example 39, 6-methyl-4-[2-[4-(phenylmethoxy)phenyl]ethoxy]furo[2,3-d]pyrimidine]
mortality at 200 ppm [1]: 0%
mortality at 400 ppm [1]: 0%
pest or weed control at 400 µg/mL [2]: 0 to 19%
mortality at 200 ppm [3]: 0%
mortality at 400 ppm [3]: 10%
mortality at 12 ppm [4]: 0%
mortality at 24 ppm [4]: 0%
pest or weed control at 400 µg/mL [5]: 0 to 19%
pest or weed control at 400 µg/mL [6]: 0 to 19%
mortality at 200 ppm [7]: 0%
mortality at 400 ppm [7]: 0%
pest or weed control at 400 µg/mL [8]: 0 to 19%
pest or weed control at 400 µg/mL [9]: 90 to 100%

Cc1oc2ncnc(Oc3ccccc3F)c2c1C [Example 66, 4-(2-fluorophenoxy)-5,6-dimethylfuro[2,3-d]pyrimidine]
mortality at 200 ppm [1]: 0%
mortality at 400 ppm [1]: 0%
pest or weed control at 400 µg/mL [2]: 0 to 19%
mortality at 200 ppm [3]: 0%
mortality at 400 ppm [3]: 0%
mortality at 12 ppm [4]: 0%
mortality at 24 ppm [4]: 0%
pest or weed control at 400 µg/mL [5]: 0 to 19%
pest or weed control at 400 µg/mL [6]: 90 to 100%
mortality at 200 ppm [7]: 0%
mortality at 400 ppm [7]: 0%
pest or weed control at 400 µg/mL [8]: 90 to 100%
pest or weed control at 400 µg/mL [9]: 20 to 89%

Cc1oc2ncnc(Oc3ccc(OC(F)(F)F)cc3)c2c1C [Example 32, 5,6-dimethyl-4-[4-(trifluoromethoxy)phenoxy]furo[2,3-d]pyrimidine]
mortality at 200 ppm [1]: 0%
mortality at 400 ppm [1]: 0%
mortality at 200 ppm [3]: 0%
mortality at 400 ppm [3]: 0%
mortality at 12 ppm [4]: 0%
mortality at 24 ppm [4]: 0%
pest or weed control at 400 µg/mL [5]: 0 to 19%
pest or weed control at 400 µg/mL [6]: 0 to 19%
mortality at 200 ppm [7]: 0%
mortality at 400 ppm [7]: 0%
pest or weed control at 400 µg/mL [8]: 0 to 19%
pest or weed control at 400 µg/mL [9]: 0 to 19%

Cc1ccc(CCNc2ncnc3oc(C)c(C)c23)cc1 [Example 24, 5,6-dimethyl-N-[2-(4-methylphenyl)ethyl]furo[2,3-d]pyrimidin-4-amine]
mortality at 200 ppm [1]: 0%
mortality at 400 ppm [1]: 0%
pest or weed control at 400 µg/mL [2]: 0 to 19%
mortality at 200 ppm [3]: 0%
mortality at 400 ppm [3]: 0%
mortality at 12 ppm [4]: 0%
mortality at 24 ppm [4]: 0%
pest or weed control at 400 µg/mL [5]: 20 to 89%
pest or weed control at 400 µg/mL [6]: 0 to 19%
mortality at 200 ppm [7]: 0%
mortality at 400 ppm [7]: 0%
pest or weed control at 400 µg/mL [8]: 0 to 19%
pest or weed control at 400 µg/mL [9]: 90 to 100%

COc1ccc(CCn2cnc3oc(C)c(C)c3c2=N)cc1 [Example 80, 3-[2-(4-methoxyphenyl)ethyl]-5,6-dimethylfuro[2,3-d]pyrimidin-4(3H)-imine]
mortality at 200 ppm [1]: 0%
mortality at 400 ppm [1]: 0%
pest or weed control at 400 µg/mL [2]: 0 to 19%
mortality at 200 ppm [3]: 0%
mortality at 400 ppm [3]: 0%
mortality at 12 ppm [4]: 0%
mortality at 24 ppm [4]: 0%
pest or weed control at 400 µg/mL [5]: 0 to 19%
pest or weed control at 400 µg/mL [6]: 0 to 19%
mortality at 200 ppm [7]: 0%
mortality at 400 ppm [7]: 0%
pest or weed control at 400 µg/mL [9]: 0 to 19%

CCOc1ccc(CCNc2ncnc3oc(C)cc23)cc1 [Example 9, 6-methyl-N-[2-(4-ethoxyphenyl)ethyl]furo(2,3-d]pyrimidin-4-amine]
mortality at 200 ppm [1]: 0%
mortality at 400 ppm [1]: 0%
pest or weed control at 400 µg/mL [2]: 0 to 19%
mortality at 200 ppm [3]: 0%
mortality at 400 ppm [3]: 0%
mortality at 12 ppm [4]: 0%
mortality at 24 ppm [4]: 0%
pest or weed control at 400 µg/mL [5]: 0 to 19%
pest or weed control at 400 µg/mL [6]: 0 to 19%
mortality at 200 ppm [7]: 0%
mortality at 400 ppm [7]: 0%
pest or weed control at 400 µg/mL [8]: 20 to 89%
pest or weed control at 400 µg/mL [9]: 90 to 100%

COc1ccccc1CCNc1ncnc2occ(C)c12 [Example 35, 5-methyl-N-[2,(2-methoxyphenyl)ethyl]furo[2,3-d]pyrimidin-4-amine]
mortality at 200 ppm [1]: 0%
mortality at 400 ppm [1]: 0%
mortality at 200 ppm [3]: 0%
mortality at 400 ppm [3]: 30%
mortality at 12 ppm [4]: 0%
mortality at 24 ppm [4]: 0%
pest or weed control at 400 µg/mL [5]: 0 to 19%
pest or weed control at 400 µg/mL [6]: 0 to 19%
mortality at 200 ppm [7]: 0%
mortality at 400 ppm [7]: 0%
pest or weed control at 400 µg/mL [8]: 20 to 89%
pest or weed control at 400 µg/mL [9]: 90 to 100%

Fc1ccc(Oc2ncnc3oc4c(c23)CCCC4)cc1 [Example 34, 4-(4-fluorophenyloxy)-5,6,7,8-tetrahydrobenzofuro[2,3-d]pyrimidine]
mortality at 200 ppm [1]: 0%
mortality at 400 ppm [1]: 0%
mortality at 200 ppm [3]: 0%
mortality at 400 ppm [3]: 0%
mortality at 12 ppm [4]: 0%
mortality at 24 ppm [4]: 0%
pest or weed control at 400 µg/mL [5]: 0 to 19%
pest or weed control at 400 µg/mL [6]: 0 to 19%
mortality at 200 ppm [7]: 0%
mortality at 400 ppm [7]: 0%
pest or weed control at 400 µg/mL [8]: 0 to 19%
pest or weed control at 400 µg/mL [9]: 20 to 89%

Cc1oc2ncnc(Oc3ccc(C#N)cc3)c2c1C [Example 36, 4-[(5,6-dimethylfuro[2,3-d]pyrimidin-4-yl)oxy]benzonitrile]
mortality at 200 ppm [1]: 0%
mortality at 400 ppm [1]: 0%
mortality at 200 ppm [3]: 0%
mortality at 400 ppm [3]: 0%
mortality at 12 ppm [4]: 0%
mortality at 24 ppm [4]: 0%
pest or weed control at 400 µg/mL [5]: 0 to 19%
pest or weed control at 400 µg/mL [6]: 0 to 19%
mortality at 200 ppm [7]: 0%
mortality at 400 ppm [7]: 0%
pest or weed control at 400 µg/mL [8]: 0 to 19%
pest or weed control at 400 µg/mL [9]: 0 to 19%

COc1cccc(CCNc2ncnc3occ(C)c23)c1 [Example 33, 5-methyl-N-[2-(3-methoxyphenyl)ethyl]furo[2,3-d]pyrimidin-4-amine]
mortality at 200 ppm [1]: 0%
mortality at 400 ppm [1]: 0%
mortality at 200 ppm [3]: 40%
mortality at 400 ppm [3]: 0%
mortality at 12 ppm [4]: 0%
mortality at 24 ppm [4]: 0%
pest or weed control at 400 µg/mL [5]: 20 to 89%
pest or weed control at 400 µg/mL [6]: 90 to 100%
mortality at 200 ppm [7]: 80%
mortality at 400 ppm [7]: 0%
pest or weed control at 400 µg/mL [8]: 90 to 100%
pest or weed control at 400 µg/mL [9]: 90 to 100%

Cc1oc2ncnc(OCCc3ccc(OCC(F)(F)F)cc3)c2c1C [Example 78]
mortality at 200 ppm [1]: 0%
mortality at 400 ppm [1]: 100%
mortality at 200 ppm [3]: 90%
mortality at 400 ppm [3]: 100%
mortality at 12 ppm [4]: 0%
mortality at 24 ppm [4]: 0%
mortality at 200 ppm [7]: 20%
mortality at 400 ppm [7]: 0%

Cc1oc2ncnc(Oc3ccccc3C#N)c2c1C [Example 37, 2-[(5,6-dimethylfuro[2,3-d]pyrimidin-4-yl)oxy]benzonitrile]
mortality at 200 ppm [1]: 0%
mortality at 400 ppm [1]: 0%
mortality at 200 ppm [3]: 0%
mortality at 400 ppm [3]: 0%
mortality at 12 ppm [4]: 0%
mortality at 24 ppm [4]: 0%
pest or weed control at 400 µg/mL [5]: 0 to 19%
pest or weed control at 400 µg/mL [6]: 0 to 19%
mortality at 200 ppm [7]: 90%
mortality at 400 ppm [7]: 0%
pest or weed control at 400 µg/mL [8]: 20 to 89%
pest or weed control at 400 µg/mL [9]: 0 to 19%
